Laboratory results taken from ChEMBL document CHEMBL1201862, “PubChem BioAssay data set” (2004).
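Each compound was tested at five concentrations against cells in 96-well plates for 48 hours. Here, GI50 denotes the concentration required for 50% inhibition of growth.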 Calls of active or inactive are those of the source. Cut-off read from the data, not from the text of the source: active = GI50 up to about 1.1 µM and inactive = higher.

How the values were obtained:
Assay in all cases: NCI tumour cell line growth inhibition, 48 h
[1] = test system: 786-0
[2] = test system: HL-60
[3] = test system: HOP-62
[4] = test system: HT-29
[5] = test system: Hs-578T
[6] = test system: KM12
[7] = test system: MOLT-4
[8] = test system: NCI-H460
[9] = test system: NCI-H522
[10] = test system: OVCAR-8
[11] = test system: RXF 393
[12] = test system: SK-OV-3
[13] = test system: SN12C
[14] = test system: SNB-19
[15] = test system: SNB-75
[16] = test system: SR
[17] = test system: SW-620
[18] = test system: UACC-257
[19] = test system: UO-31
[20] = test system: HOP-92

Measured: GI50

CC1CC(C#N)=C2NCCN2C1=O (centres undefined)
inactive: [1] > 100 µM | [2] > 100 µM | [3] > 100 µM | [4] > 100 µM | [5] > 100 µM | [6] > 100 µM | [7] > 100 µM | [8] > 100 µM | [9] 95.1 µM | [10] > 100 µM | [11] > 100 µM | [12] > 100 µM | [13] > 100 µM | [14] > 100 µM | [15] > 100 µM | [16] > 100 µM | [17] 31.9 µM | [18] 78 µM | [19] > 100 µM

CCC1(CC)C(=O)N(C(=O)c2ccc(C)cc2)N(C(=O)c2ccc(C)cc2)C1=O
inactive: [1] > 75 µM | [2] 28.4 µM | [3] 65.6 µM | [4] > 75 µM | [5] > 75 µM | [6] 50.9 µM | [7] 20 µM | [8] 18.3 µM | [9] 16.8 µM | [10] > 75 µM | [11] > 75 µM | [12] > 75 µM | [13] 54.2 µM | [14] > 75 µM | [15] 14.4 µM | [16] 26.2 µM | [17] 29.8 µM | [18] > 75 µM | [19] > 75 µM

C[N+]12C=CC=C1C(N1CCCC1)c1scc(-c3ccc(Br)cc3)c12 (centres undefined)
inactive: [1] 16.7 µM | [3] 14.8 µM | [20] 12 µM | [4] 22.2 µM | [5] 1.98 µM | [6] 12.1 µM | [7] 15.8 µM | [8] 14.6 µM | [9] 1.64 µM | [10] 4.11 µM | [11] 10.2 µM | [12] > 81.7 µM | [13] 3.02 µM | [14] 4.22 µM | [15] 3.1 µM | [16] 4.81 µM | [17] 41.2 µM | [18] 7.36 µM | [19] > 100 µM

CCOC(=O)CC(=O)NC1CC2CCC1(C)C2(C)C (centres undefined)
inactive: [1] > 100 µM | [2] > 100 µM | [3] > 100 µM | [4] > 100 µM | [5] > 100 µM | [6] > 100 µM | [7] > 100 µM | [8] > 100 µM | [10] > 100 µM | [11] > 100 µM | [12] > 100 µM | [13] > 100 µM | [14] > 100 µM | [15] > 100 µM | [16] > 100 µM | [17] > 100 µM | [18] > 100 µM | [19] > 100 µM

NC(=O)c1cc(N(CCO)CCO)c([N+](=O)[O-])cc1[N+](=O)[O-]
inactive: [1] > 100 µM | [2] > 100 µM | [3] > 100 µM | [20] > 100 µM | [4] > 100 µM | [5] > 100 µM | [6] > 100 µM | [7] > 100 µM | [8] > 100 µM | [9] > 100 µM | [11] > 100 µM | [12] > 100 µM | [13] > 100 µM | [14] > 100 µM | [16] > 100 µM | [17] > 100 µM | [18] > 100 µM | [19] > 100 µM

CCC1=C(C)C(=O)N/C1=C\c1[nH]c(C)c([C@H](C)CCN)c1C
inactive: [1] 14.7 µM | [2] 10 µM | [3] 16.6 µM | [20] 14.6 µM | [4] 15.7 µM | [5] 11.9 µM | [6] 15.7 µM | [7] 34 µM | [8] 20.3 µM | [9] 11.6 µM | [10] 15.3 µM | [12] 16.9 µM | [13] 16 µM | [15] 10.1 µM | [16] 50.6 µM | [17] 16.6 µM | [19] 15.8 µM

COC(=O)c1cncc2c1CC1C3(C(=O)OC)C=NC(C4C(CO)=CCC43)C21C (centres undefined)
inactive: [1] > 100 µM | [2] > 100 µM | [3] > 100 µM | [20] > 100 µM | [4] > 100 µM | [5] > 100 µM | [6] > 100 µM | [7] > 100 µM | [8] > 100 µM | [9] > 100 µM | [10] > 100 µM | [11] > 100 µM | [13] > 100 µM | [14] > 100 µM | [15] 83.4 µM | [16] > 100 µM | [17] > 100 µM | [18] > 100 µM | [19] > 100 µM
